The target in the test is T1, human cardiac ion channel proteins hKir3.1/Kir3.4 (Homo sapiens, UniProt P48544+P48549).
T1 construct: expressed in transfected cells
T1 sequence (P48549 1-501): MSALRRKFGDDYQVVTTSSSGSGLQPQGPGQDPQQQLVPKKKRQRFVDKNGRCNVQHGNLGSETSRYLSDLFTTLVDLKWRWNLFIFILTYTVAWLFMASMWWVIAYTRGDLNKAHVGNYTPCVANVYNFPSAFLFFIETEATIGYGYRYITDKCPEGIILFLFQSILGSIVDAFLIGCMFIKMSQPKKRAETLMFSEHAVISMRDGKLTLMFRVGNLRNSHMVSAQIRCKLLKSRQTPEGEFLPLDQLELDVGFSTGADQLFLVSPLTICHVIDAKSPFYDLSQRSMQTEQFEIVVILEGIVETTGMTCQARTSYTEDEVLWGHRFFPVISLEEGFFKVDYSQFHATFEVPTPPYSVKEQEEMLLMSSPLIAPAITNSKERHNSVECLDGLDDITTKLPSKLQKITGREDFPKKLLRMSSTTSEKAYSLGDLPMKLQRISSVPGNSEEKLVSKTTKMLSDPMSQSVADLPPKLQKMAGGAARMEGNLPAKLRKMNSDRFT
T1 sequence (P48544 1-419): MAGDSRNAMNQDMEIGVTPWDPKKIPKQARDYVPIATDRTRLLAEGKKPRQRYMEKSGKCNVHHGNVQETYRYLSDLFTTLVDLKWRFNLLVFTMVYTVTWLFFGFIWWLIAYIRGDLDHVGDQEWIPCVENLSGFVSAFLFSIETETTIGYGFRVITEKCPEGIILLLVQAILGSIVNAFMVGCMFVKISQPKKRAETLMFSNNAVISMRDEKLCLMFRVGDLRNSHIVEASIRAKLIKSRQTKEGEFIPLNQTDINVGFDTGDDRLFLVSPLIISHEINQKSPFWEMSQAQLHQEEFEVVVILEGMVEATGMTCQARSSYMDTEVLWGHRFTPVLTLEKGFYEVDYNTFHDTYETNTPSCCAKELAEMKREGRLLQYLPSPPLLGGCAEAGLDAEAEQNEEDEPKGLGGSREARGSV
In words: Atomic Absorption Screening (AAS) Rb efflux assay of hKir3.1/Kir3.4 block, carbachol/high K+ stimulated, 10-pt or 7-pt CR. The conditions noted are these: AAS Rb efflux, CHO-K1 cells expressing hKir3.1/Kir3.4. The class given is cell-based. Put shortly:
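CHO-K1 cells stably co-expressing human Kir3.1/Kir3.4 were Rb-loaded for 3 h at 37° C, preincubated with compound 5 min at RT, then stimulated 10 min with 10 μM carbachol plus 20 mM KCl (final). Supernatant Rb was measured by atomic absorption. Compounds ran at 0.003–67 μmol/L (10-pt) or 0.037–27 μmol/L (7-pt), threefold dilutions; IC50s are means of >4 or >3 replicates respectively.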

[1] abbreviates: 10-pt CR (0.003 to 67 μmol/L), mean of >4 replicates, read-out: IKACh IC50 10-pt CR, AAS.

Read-outs that look alike come from different tables or passages of the source.

With `CC(C)[C@@H](CN1C[C@H](O)[C@@H](O)C1)N(C)C(=O)c1ccc(Cl)c(F)c1` [Example 8.15, 4-Chloro-N-((S)-1-((3S,4S)-3,4-dihydroxypyrrolidin-1-yl)-3-methylbutan-2-yl)-3-fluoro-N-methylbenzamide], the IC50 under setting [1] was 4.5 µM.
With `Cc1cc(C(=O)N(C)[C@H](CN2C[C@@H](O)[C@H](O)C2)C(C)C)ccc1Cl` [Example 8.16, 4-Chloro-N-((S)-1-((3R,4R)-3,4-dihydroxypyrrolidin-1-yl)-3-methylbutan-2-yl)-N,3-dimethylbenzamide], under setting [1], the IC50 is 16 µM.
With `CC[C@@H](CN1CC(O)C1)N(C)C(=O)c1ccc(F)c(C)c1` [Example 8.17, (S)-4-Fluoro-N-(1-(3-hydroxyazetidin-1-yl)butan-2-yl)-N,3-dimethylbenzamide], the IC50 under setting [1] is 2 µM.
With `Cc1cc(C(=O)N(C)[C@H](CN2CC(O)(C3CC3)C2)C2CC2)ccc1F` [Example 9.1, (S)—N-(1-Cyclopropyl-2-(3-cyclopropyl-3-hydroxyazetidin-1-yl)ethyl)-4-fluoro-N,3-dimethylbenzamide], the concentration for half-maximal inhibition (IC50) under setting [1] stood at 2.6 µM.
For the molecule `CN(C(=O)c1ccc(F)c(Cl)c1)[C@H](CN1CC(O)(C2CC2)C1)C1CC1` [Example 9.2, (S)-3-Chloro-N-(1-cyclopropyl-2-(3-cyclopropyl-3-hydroxyazetidin-1-yl)ethyl)-4-fluoro-N-methylbenzamide], the IC50 under setting [1] is 1.2 µM.
In the case of `CN(C(=O)c1ccc(F)c(F)c1)[C@H](CN1CC(O)(C2CC2)C1)C1CC1` [Example 9.3, (S)-N-(1-Cyclopropyl-2-(3-cyclopropyl-3-hydroxyazetidin-1-yl)ethyl)-3,4-difluoro-N-methylbenzamide], the IC50 under setting [1] is 3.1 µM.
On to `CN(C(=O)c1ccc(C#N)cc1)[C@H](CN1CC(O)(C2CC2)C1)C1CC1` [Example 9.4, (S)-4-Cyano-N-(1-cyclopropyl-2-(3-cyclopropyl-3-hydroxyazetidin-1-yl)ethyl)-N-methylbenzamide], for which, under setting [1], the IC50 amounted to 14 µM.
On to `Cc1ccc(C(=O)N(C)[C@H](CN2CC(O)(C3CC3)C2)C2CC2)cc1C` [Example 9.5, (S)-N-(1-Cyclopropyl-2-(3-cyclopropyl-3-hydroxyazetidin-1-yl)ethyl)-N,3,4-trimethylbenzamide], for which the IC50 under setting [1] was found to be 1.3 µM.
Regarding `CC(C)[C@@H](CN1CC(C)(O)C1)N(C)C(=O)c1ccc(Br)cc1` [Example 9.6, (S)-4-Bromo-N-(1-(3-hydroxy-3-methylazetidin-1-yl)-3-methyl-butan-2-yl)-N-methylbenzamide], the IC50 under setting [1] worked out at 2.8 µM.
In the case of `CC(C)[C@@H](CN1CC(C)(O)C1)N(C)C(=O)c1ccc(Cl)cc1` [Example 9.7, (S)-4-Chloro-N-(1-(3-hydroxy-3-methylazetidin-1-yl)-3-methyl-butan-2-yl)-N-methylbenzamide], the IC50 under setting [1] amounted to 8.6 µM.
As for `CC(C)[C@@H](CN1CC(C)(O)C1)N(C)C(=O)c1ccc(F)c(C(F)(F)F)c1` [Example 9.8, (S)-4-Fluoro-N-(1-(3-hydroxy-3-methylazetidin-1-yl)-3-methyl-butan-2-yl)-N-methyl-3-(trifluoromethyl)benzamide], the IC50 under setting [1] stood at 5.3 µM.
On to `CN(C(=O)c1ccc(F)c(F)c1)[C@H](CN1CC(O)C1)C1CC1` [Example 9.9, (S)-N-(1-Cyclopropyl-2-(3-hydroxyazetidin-1-yl)ethyl)-3,4-difluoro-N-methylbenzamide], for which the IC50 under setting [1] amounted to 11 µM.
As to `Cc1ccc(C(=O)N(C)[C@H](CN2CCC2)C2CC2)cc1C` [Example 9.10, N-[(1S)-2-(azetidin-1-yl)-1-cyclopropylethyl]-N,3,4-trimethylbenzamide], under setting [1], the IC50 was found to be 2.1 µM.
`CN(C(=O)c1ccc(F)c(F)c1)[C@H](CN1CCC1)C1CC1` [Example 9.11, (S)-N-(2-(Azetidin-1-yl)-1-cyclopropylethyl)-3,4-difluoro-N-methylbenzamide]: under setting [1], the half-maximal inhibitory concentration (IC50) is 12 µM.
For the molecule `CC(C)[C@@H](CN1CC[C@H](O)C1)N(C)C(=O)c1ccc(F)cc1Cl` [Example 10.1, (3S)-1-((S)-2-(2-Chloro-4-fluoro-N-methylbenzamido)-3-methylbutyl)-3-hydroxypyrrolidinium 2,3-dihydroxysuccinate], the IC50 (7-pt CR (0.037 to 27 μmol/L), mean of >3 replicates, read-out: IKACh IC50 7-pt CR, AAS) worked out at 3.7 µM and the 50% inhibitory concentration (IC50) under setting [1] was 6.1 µM.
With `CCN(C(=O)c1ccc(Cl)cc1)[C@H](CN1CCC1)C(C)C` [Example 11, (S)—N-(1-(Azetidin-1-yl)-3-methylbutan-2-yl)-4-chloro-N-ethylbenzamide], the IC50 under setting [1] was found to be 5.6 µM.
On to `CN(C(=O)c1ccc(F)c(Cl)c1)[C@H](CN1CCCC1)C1CC1` [Example 13.1, (S)-3-Chloro-N-(1-cyclopropyl-2-(pyrrolidin-1-yl)ethyl)-4-fluoro-N-methylbenzamide], for which, under setting [1], the IC50 came out at 2.5 µM.
Consider `Cc1ccc(C(=O)N(C)[C@H](CN2CCCC2)C2CC2)cc1C` [Example 13.2, (S)-N-(1-Cyclopropyl-2-(pyrrolidin-1-yl)ethyl)-N,3,4-trimethyl-benzamide], for which the 50% inhibitory concentration (IC50) under setting [1] amounted to 3.9 µM.
In the case of `CC(C)[C@@H](CCN1CCCC1)N(C)C(=O)c1cccc(Cl)c1` [Example 13.3, (R)-3-Chloro-N-methyl-N-(4-methyl-1-(pyrrolidin-1-yl)pentan-3-yl)benzamide], the concentration for half-maximal inhibition (IC50) under setting [1] is 19 µM.
For the molecule `Cc1cc(C(=O)N(C)[C@H](CCN2CCCC2)C(C)C)ccc1F` [Example 13.4, (R)-4-Fluoro-N,3-dimethyl-N-(4-methyl-1-(pyrrolidin-1-yl)pentan-3-yl)benzamide], the concentration for half-maximal inhibition (IC50) under setting [1] was found to be 19 µM.
In the case of `Cc1cc(C(=O)N(C)[C@H](CN2CCCC2)[C@@H](C)OC(C)(C)C)ccc1F` [Example 14, N-((2R,3R)-3-Tert-butoxy-1-(pyrrolidin-1-yl)butan-2-yl)-4-fluoro-N,3-dimethylbenzamide], under setting [1], the IC50 stood at 16 µM.
Still for that read-out and setting: then `CCN(C(=O)c1ccc(Br)cc1)[C@H](CN1CCCC1)C(C)C` [Example 15.1, (S)-4-Bromo-N-ethyl-N-(3-methyl-1-(pyrrolidin-1-yl)butan-2-yl)benzamide], with 11 µM; and `CCN(C(=O)c1ccc(F)c(C)c1)[C@H](CN1CCCC1)C(C)C` [Example 15.2, (S)-N-Ethyl-4-fluoro-3-methyl-N-(3-methyl-1-(pyrrolidin-1-yl)butan-2-yl)benzamide], with 18 µM; and `CCN(C(=O)c1ccc(Cl)cc1)[C@H](CN1CCCC1)C(C)C` [Example 15.3, (S)-4-Chloro-N-ethyl-N-(3-methyl-1-(pyrrolidin-1-yl)butan-2-yl)benzamide], with 7.4 µM.
Regarding `COCCN(C(=O)c1ccc(Cl)cc1)[C@H](CN1CCCC1)C(C)C` [Example 15.4, (S)-4-Chloro-N-(2-methoxyethyl)-N-(3-methyl-1-(pyrrolidin-1-yl)butan-2-yl)benzamide], the half-inhibitory concentration (IC50) under setting [1] came out at 5.7 µM.
Same read-out and setting: for `COCCN(C(=O)c1ccc(Br)cc1)[C@H](CN1CCCC1)C(C)C` [Example 15.5, (S)-4-Bromo-N-(2-methoxyethyl)-N-(3-methyl-1-(pyrrolidin-1-yl)butan-2-yl)benzamide] the value was 2.3 µM; for `CC(C)[C@@H](CN1CCCC(F)(F)C1)N(C)C(=O)c1ccc(F)c(Cl)c1` [Example 16.1, (S)-3-Chloro-N-(1-(3,3-difluoropiperidin-1-yl)-3-methylbutan-2-yl)-4-fluoro-N-methylbenzamide], 17 µM.
For `CC(C)[C@@H](CN1CCCC(F)(F)C1)N(C)C(=O)c1ccc(F)c(C(F)(F)F)c1` [Example 16.2, (S)—N-(1-(3,3-Difluoropiperidin-1-yl)-3-methylbutan-2-yl)-4-fluoro-N-methyl-3-(trifluoromethyl)benzamide], the IC50 under setting [1] came out at 15 µM.
For `Cc1ccc(C(=O)N(C)[C@H](CN2CCCC(F)(F)C2)C(C)C)cc1C` [Example 16.3, (S)—N-(1-(3,3-Difluoropiperidin-1-yl)-3-methylbutan-2-yl)-N,3,4-trimethylbenzamide], the IC50 under setting [1] amounted to 11 µM.
Same read-out and setting: then `COc1cc(C(=O)N(C)[C@H](CN2CCCC(F)(F)C2)C(C)C)ccc1C` [Example 16.4, (S)—N-(1-(3,3-Difluoropiperidin-1-yl)-3-methylbutan-2-yl)-3-methoxy-N,4-dimethylbenzamide], with 18 µM; and `CC(C)[C@@H](CN1CCCC(F)(F)C1)N(C)C(=O)c1ccc(Br)cc1` [Example 16.5, (S)-4-Bromo-N-(1-(3,3-difluoropiperidin-1-yl)-3-methylbutan-2-yl)-N-methyl-benzamide], with 11 µM.

A word on the IC50: it is the midpoint of a concentration-inhibition curve.

For the origin of these results see patent US8361998B2, “Compounds and their use as IKACh blockers” (AstraZeneca AB, priority 2010, dated 2013).
